Measured values from patent US11090267B2, “Rapidly degrading embolic particles with therapeutic agent release” (priority 2014, dated 2021).

Assay: incubation in water at 37° C., crystal form conversion (micrographs)
Format: physicochemical

SMILES	conversion to dihydrate crystals upon incubation in water (amorphous paclitaxel microparticles dispersed in PLGA matrix, water at 37C, FIG. 4)	conversion to dihydrate crystals upon incubation in water (as-received powder dispersed in water at 37° C., FIGS. 5 and 6)
CC(=O)O[C@H]1C(=O)[C@@]2(C)[C@H]([C@H](OC(=O)c3ccccc3)[C@]3(O)C[C@H](OC(=O)[C@H](O)[C@@H](NC(=O)c4ccccc4)c4ccccc4)C(C)=C1C3(C)C)[C@]1(OC(C)=O)CO[C@@H]1C[C@@H]2O [amorphous paclitaxel, paclitaxel]	coalesce within hours into large, needle-like dihydrate crystals	–
CC(=O)O[C@H]1C(=O)[C@@]2(C)[C@H]([C@H](OC(=O)c3ccccc3)[C@]3(O)C[C@H](OC(=O)[C@H](O)[C@@H](NC(=O)c4ccccc4)c4ccccc4)C(C)=C1C3(C)C)[C@]1(OC(C)=O)CO[C@@H]1C[C@@H]2O [crystalline anhydrous paclitaxel, paclitaxel]	–	coalesce within hours to large needle-like dihydrate crystals
